Consider four compounds from patent publication US11155542B2, “Antimicrobial compounds, their use for the treatment of mammalian infections and a new metabolic mechanism” (priority 2016, dated 2021).

Values after ≈ are worked out from the molar mass of the structure shown.

In this assay the test system is Mtb (PDR) 12700. The assay is described as follows: Resazurin microtiter assay (REMA), MIC Mtb (PDR) 12700. The format is cell-based. Conditions: Mycobacterium tuberculosis; PDR = poly drug resistant (isoniazid and streptomycin). On the technique in general: The colour change of resazurin is a common sign of viable cells or microbes.

`C[C@H]1COC2(CCN(c3nc(=O)c4cc(C(F)(F)F)cc([N+](=O)[O-])c4s3)CC2)O1` [BTZ043, (S)-2-(2-methyl-1,4-dioxa-8-azaspiro[4.5]decan-8-yl)-8-nitro-6-(trifluoro-methyl)-4H-1,3-benzothiazin-4-one, reference compound]: it took 2 ng/mL (≈ 4.64 nM) to inhibit growth (MIC).
Next, `Cc1c(C(F)(F)F)cc2c(=O)nc(N3CCC4(CC3)OC[C@H](C)O4)sc2c1[N+](=O)[O-]` [Example 9a, (S)-7-Methyl-2-(2-methyl-1,4-dioxa-8-azaspiro[4.5]decan-8-yl)-8-nitro-6-(trifluoromethyl)-4H-1,3-benzothiazin-4-one]: 250 ng/mL (≈ 561 nM); `Cc1c(C(F)(F)F)cc([N+](=O)[O-])c2sc(N3CCC4(CC3)OC[C@H](C)O4)nc(=O)c12` [Example 9b, (S)-5-Methyl-2-(2-methyl-1,4-dioxa-8-azaspiro[4.5]decan-8-yl)-8-nitro-6-(trifluoromethyl)-4H-1,3-benzothiazin-4-one]: 4 ng/mL (≈ 8.98 nM).
Turning to `Cc1c(C(F)(F)F)cc([N+](=O)[O-])c2sc(N3CCN(CC4CCCCC4)CC3)nc(=O)c12` [Example 16, 2-(4-(Cyclohexylmethyl)piperazin-1-yl)-5-methyl-8-nitro-6-(trifluoromethyl)-4H-1,3-benzothiazin-4-one], the MIC (commonly the least concentration at which growth counts as inhibited) was not above 0.063 ng/mL.
